Results from publication PMC5853558, “De novo identification of lipid II binding lipopeptides with antibacterial activity against vancomycin-resistant bacteria” (Chemical Science, 2017).
Values after ≈ are worked out from the molar mass of the structure shown. *1 amine or outer side, *2 acyl side, *3 side chain or, on linkers, in order; H or OH if unused. Where a SMILES comes first, the peptide text is derived from it. Bridges are numbered along the chain shown (N, C = ends). [ ]: non-standard residue; d: D form. The star is where a group is joined. TBMB = c1c(C[*:1])cc(C[*:3])cc1C[*:2]; NHDecyl = CCCCCCCCCCN*

Legend:
E. faecium (VRE0321) = test: microbe, parasite or virus in culture; format: cell-based, Enterococcus faecium
Outline: (§1)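 Exponential-phase bacteria (OD600 0.5) were diluted to 1 x 10^6 CFU/ml and added in equal volume to twofold peptide dilutions in TSB. Highest final levels were 512 µg/ml for peptides and 64 µg/ml for lipidated peptides, each with 2% DMSO. Plates shook at 250 rpm at the organism's preferred temperature.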

E. faecium (VRE2297) = test: microbe, parasite or virus in culture; format: cell-based, Enterococcus faecium
Outline: as §1

E. faecium (E980) = test: microbe, parasite or virus in culture; format: cell-based, Enterococcus faecium
Outline: as §1

E. faecium (VRE7391) = test: microbe, parasite or virus in culture; format: cell-based, Enterococcus faecium
Outline: as §1

E. faecium (VRE155) = test: microbe, parasite or virus in culture; format: cell-based, Enterococcus faecium
Outline: as §1

S. pyogenes (5448) = test: microbe, parasite or virus in culture; format: cell-based
Outline: as §1

B. subtilis (168) = test: microbe, parasite or virus in culture; format: cell-based
Outline: as §1

S. epidermidis (1587) = test: microbe, parasite or virus in culture; format: cell-based
Outline: as §1

[1] = test system: C15-P (farnesyl-phosphate); test: Antagonization assay with C15-P (negative control); format: cell-based; set-up: key: +: antagonization of antibiotic activity; -: no antagonization of antibiotic activity; details: Supplemental table S10, peptide at 4x MIC, 4 molar equivalents, M. luteus, 16 h at 30°C, growth observed visually
Description: Section 4 Biological and biochemical experiments
4.1 Minimum inhibitory concentration assay
MIC values were determined by using the broth microdilution method. Peptides were dissolved first in DMSO and diluted with broth so that the final peptide concentration was 1024 µg/ml and the DMSO concentration was 4%. Peptide serial dilutions were made in TSB in a polypropylene 96-wells plate using 50 µl volumes. An overnight culture of the organism of interest was diluted to and OD600 of 0.01 and grown until they reach 0.5. The culture was then diluted to 1 x 10^6 CFU/ml and 50 µl of this suspension was added to each well. The highest concentrations were then 512 µg/ml peptide and 2% DMSO. The plates were incubated at the preferred growth temperature of the organism that was used and 250 rpm. […] When […]
determining the MICs of the lipidated peptides, the lipopeptides were first dissolved in DMSO and diluted with TSB so that the peptide concentration was 128 µg/ml and the DMSO concentration was 4%. After inoculation the highest peptide concentration evaluated was 64 µg/ml and the DMSO concentration was 2%. A DMSO control was tested for each strain to ensure the DMSO did not affect the growth of the particular strain. […]
4.4 Antagonization assays
Stock solutions of each peptide antibiotic were prepared so that their final concentration in the assay would be 4x MIC. Peptides were transferred to a 96 wells plate and lipid II or C15-P (farnesyl-phosphate) was added at 4 molar equivalents in a final volume of 50 µl. Each well received 50 µl of bacterial suspension (M. luteus) at 1 x 10^6 CFU/ml and the plates were incubated for 16 h at 250 rpm and 30°C. Growth was observed visually (see supplemental table S10 for results).
Supplemental table S10. Lipid II antagonization assay results
Result with indicated antagonista
Antibiotic compound Lipid II C55-PP C15-Pb […]
a + = antagonization of antibiotic activity; - = no antagonization of antibiotic activity; b C -P was used as a negative […]
control (C15-P is a watersoluble analogue of the lipid II precursor undecaprenol phosphate).
4.6 Scanning Electron Microscopy
E. faecium E155 was inoculated at an OD600nm of 0.05 into 300 µL of cation adjusted TSB containing P8-D-(S6R, R15A)-C10 or nisin at (both a 2x MIC) along with 1% glucose and 1%
DMSO. An untreated culture was used as control. Following overnight incubation (ca. 16 hr) bacterial cells were fixed for 15 minutes with 1% (v/v) glutaraldehyde in phosphate buffered saline (PBS) at room temperature on poly-L-lysine covered glass slides (12 mm diameter). […]

Sheep blood = test: Hemolysis assay; format: cell-based; details: Supplemental table S9; 1 hour incubation at 37 °C, lipopeptides at 32 µg/mL
Description: Sheep blood in Alsever’s solution (2 mL) was diluted with PBS (13 mL) and centrifuged (2,000 RPM, 5 min). The supernatant was discarded and the cells were washed with another 13 mL of PBS and centrifuged. Washing was continued until the supernatant was clear. After the final wash the supernatant was discarded and the packed cells were kept on ice. Serial dilutions of each peptide were made in 50 µl PBS with the highest tested concentration 64 µg/mL in PBS, 2%
DMSO. The packed cells (150 µL) were suspended in PBS (10 mL) and 50 µL of this suspension was added to each well. A well plate column containing 0.1% triton x-100 in DI water was used as the 100% lysis control and a second column with PBS (with 2% DMSO) served as the 0% lysis control. After incubation at 37°C for 1h the plates were centrifuged (2,000 RPM, 5 min) and 25 µL of the supernatant was added to 100 µL DI water in a flat-bottom 96-wells plate (polystyrene). […]

[2] = Supplemental table S9, vancomycin-resistant isolate, MIC values of Table 2 expressed in µM
[3] = Table 2, vancomycin-resistant isolate from hospitalized patients, broth microdilution in TSB, 16 h, highest tested 64 µg/ml
[4] = Supplemental table S9, MIC values of Table 2 expressed in µM
[5] = Table 2, broth microdilution in TSB, 16 h, read visually, highest tested 64 µg/ml

Structure (SMILES) | MIC E. faecium (VRE0321) (E. faecium (VRE0321); [2]) [µM] | MIC E. faecium (VRE0321) (E. faecium (VRE0321); [3]) [μg mL^–1] | MIC E. faecium (VRE2297) (E. faecium (VRE2297); [2]) [µM] | MIC E. faecium (VRE2297) (E. faecium (VRE2297); [3]) [μg mL^–1] | MIC E. faecium (E980) (E. faecium (E980); [4]) [µM] | MIC E. faecium (E980) (E. faecium (E980); [5]) [μg mL^–1] | MIC E. faecium (VRE7391) (E. faecium (VRE7391); [2]) [µM] | MIC E. faecium (VRE7391) (E. faecium (VRE7391); [3]) [μg mL^–1] | MIC E. faecium (VRE155) (E. faecium (VRE155); [2]) [µM] | MIC E. faecium (VRE155) (E. faecium (VRE155); [3]) [μg mL^–1] | MIC S. pyogenes (5448) (S. pyogenes (5448); [5]) | MIC B. subtilis (168) (B. subtilis (168); [4]) [µM] | MIC B. subtilis (168) (B. subtilis (168); [5]) [μg mL^–1] | MIC S. epidermidis (1587) (S. epidermidis (1587); [4]) [µM] | MIC S. epidermidis (1587) (S. epidermidis (1587); [5]) [μg mL^–1] | Result with antagonist C15-P [1] | Hemolysis (Sheep blood) [%] | MIC S. pyogenes (5448) (S. pyogenes (5448); [4]) [µM]
CCCCCCCCCCNC(=O)CNC(=O)[C@H]1CSCc2cc3cc(c2)CSC[C@@H](NC(=O)[C@@H](CC(C)C)NC(=O)[C@@H](CC(C)C)NC(=O)[C@@H](CCCNC(=N)N)NC(=O)[C@@H](CCC(N)=O)NC(=O)[C@@H](CC(C)C)NC(=O)[C@@H](CC(C)C)NC(=O)[C@H](NC(=O)[C@@H](C)N)CSC3)C(=O)N2CCC[C@@H]2C(=O)N[C@H](Cc2ccc(O)cc2)C(=O)N[C@H](CO)C(=O)N[C@H]([C@H](C)O)C(=O)N[C@H](Cc2c[nH]cn2)C(=O)N[C@H](C)C(=O)N1 [P8-D-(S6R, R15A)-C10] (H-[dA][dC][dL][dL][dQ][dR][dL][dL][dC][dP][dY][dS][dT][dH][dA][dC]G-NHDecyl; linker 2-9-16 via TBMB; N-terminus assumed) | 7.6 (≈ 16 µg/mL) | 8 | 15.2 (≈ 32 µg/mL) | 16 | 30.5 (≈ 64.1 µg/mL) | 32 | 15.2 (≈ 32 µg/mL) | 16 | 7.6 (≈ 16 µg/mL) | 8 | 8–16 μg mL^–1 | 7.6 (≈ 16 µg/mL) | 8 | 60.9 (≈ 128 µg/mL) | 64 | - | 0 | 
CCCCCCCCCCNC(=O)CNC(=O)[C@@H]1CSCc2cc3cc(c2)CSC[C@H](NC(=O)[C@H](CC(C)C)NC(=O)[C@H](CC(C)C)NC(=O)[C@H](CCCNC(=N)N)NC(=O)[C@H](CCC(N)=O)NC(=O)[C@H](CC(C)C)NC(=O)[C@H](CC(C)C)NC(=O)[C@@H](NC(=O)[C@H](C)N)CSC3)C(=O)N2CCC[C@H]2C(=O)N[C@@H](Cc2ccc(O)cc2)C(=O)N[C@@H](CO)C(=O)N[C@@H]([C@@H](C)O)C(=O)N[C@@H](Cc2c[nH]cn2)C(=O)N[C@@H](C)C(=O)N1 [P8-L-(S6R, R15A)-C10] (H-ACLLQRLLCPYSTHACG-NHDecyl; linker 2-9-16 via TBMB; N-terminus assumed) | 7.6 (≈ 16 µg/mL) | 8 | 15.2 (≈ 32 µg/mL) | 16 | 30.5 (≈ 64.1 µg/mL) | 32 | 15.2 (≈ 32 µg/mL) | 16 | 7.6 (≈ 16 µg/mL) | 8 | 8 μg mL^–1 | 7.6 (≈ 16 µg/mL) | 8 | 30.5 (≈ 64.1 µg/mL) | 32 | - | 0 | 7.6 (≈ 16 µg/mL)
